In patent US20110319495A1, “Pharmaceutical Composition for Hepatitis Treatment and Applications” (priority 2010, published 2011):

How the values were obtained:
HepG2 cells [1] = test: Content of ALT and AST in culture solution of alcohol-treated HepG2 cells; format: cell-based, human; conditions: 1, 5, 10 μg/ml, 1 h before 100 mM alcohol for 24 h; dose-dependent; effect equivalent to curcumin 10 μg/ml
Procedure: (§1) A currently available test kit (Randox Laboratories, Antrim, UK) is applied to test the concentration of culture solution after cultivation of HepG2 cells as well as the concentration of ALT and AST in mouse serum. In brief, the experiment is designed to obtain the culture solution after cultivation of HepG2 cells and the serum of experimental mouse by the recommended test procedures.
(§2) The aforementioned HepG2 cells cultivated normally are grouped, and then separately cultivated 1 h together with 0, 1, 5, 10 μg/ml lucidone (0 μg/ml, negative control group) or 10 μg/ml curcumin (curcumin, a known antioxidation compound, taken as a positive control group), and then alcohol (100 mM) is added for 24 h cultivation to stimulate oxidation stress. The experiment groups and control groups are configured in Table 1:
(§3) The content of ALT, AST and tumor necrosis factor-α (TNF-α) in the tested culture solution of HepG2 cells is measured (refer to preferred embodiment 1 [test of ALT and AST concentration] and [measurement of tumor necrosis factor-α ]).

tumor necrosis factor-α = test: Content of TNF-α in culture solution of alcohol-treated HepG2 cells (ELISA); format: cell-based, human; conditions: 1, 5, 10 μg/ml, 1 h before 100 mM alcohol for 24 h; dose-dependent; effect equivalent to curcumin 10 μg/ml
Procedure: (§4) According to the principle of Griess reaction, nitrite accumulated from the supernatant liquid cultivated by cells and mouse serum is measured to obtain indirectly the generation of nitric oxide. The supernatant liquid cultivated by cells and tumor necrosis factor-α in the serum are measured using the currently available human TNF-αELISA kit. In brief, aforementioned HepG2 cells of […] are separately cultivated in 96-well plate, and then added with lucidone and alcohol to cultivate them for 24 h. Next, the culture solution is diluted by the work reagent of aforementioned kit by a percentage of 1:2. Then, every 100 μl diluted culture solution is subject to ELISA reaction as per the operating instruction of aforementioned kit, and then a spectrometer is used to detect the absorbance at wavelength 450 nm so as to judge the content of tumor necrosis factor-α; in the mouse experiment, the mouse serum is diluted properly and then the content of tumor necrosis factor-α is tested as per the operating instruction of aforementioned kit. […]
as §3

reactive oxygen species = test: Accumulation of reactive oxygen species in alcohol-treated HepG2 cells (DCF-DA); format: cell-based, human; conditions: 1, 5, 10 μg/ml, 1 h before 100 mM alcohol for 24 h; dose-dependent; effect equivalent to curcumin 10 μg/ml
Procedure: A currently available DCF-DA (dihydrodichloro-fluorescein diacetate; Sigma, USA) is used to monitor the accumulation of reactive oxygen species (ROS) in cells. In brief, the cells (1×10^7) are wetted by phosphate buffer solution, and then added into 10 μm DCF-DA for 4 h cultivation at 37° C., and then fluorescence spectrophotometer is used to measure the fluorescence (488 nm/530 nm).
as §2
The content of reactive oxygen species and nitric oxide in the tested culture solution of HepG2 cells is measured (refer to preferred embodiment 1 [Test of accumulation of reactive oxygen species in cells] and [Griess nitrite test]).
FIG. 3A depicts the content of reactive oxygen species of HepG2 cells in various groups, of which the fluorescence strength of DCF-DA indicates the content of reactive oxygen species. FIG. 3B depicts the generation of nitric oxide of HepG2 cells in various groups, of which nitrite generation indicates the generation of nitric oxide.

nitric oxide = test: Griess nitrite test, nitric oxide generation in alcohol-treated HepG2 cells; format: cell-based, human; conditions: 1, 5, 10 μg/ml, 1 h before 100 mM alcohol for 24 h; dose-dependent; effect equivalent to curcumin 10 μg/ml
Procedure: as §4
The content of reactive oxygen species and nitric oxide in the tested culture solution of HepG2 cells is measured (refer to preferred embodiment 1 [Test of accumulation of reactive oxygen species in cells] and [Griess nitrite test]). […]

HepG2 cells [2] = test: Glutathione content in alcohol-treated HepG2 cells; format: cell-based, human; conditions: lucidone 1, 5, 10 μg/ml or curcumin 10 μg/ml, 1 h before 100 mM alcohol for 24 h
Procedure: A currently available GSH-96-well plate colorimetric GSH assay kit, Oxis International, Foster City, Calif., USA) is used to measure the content of glutathione (GSH). In brief, 40 μl chromogenic reagent dissolved in acid is added into 40 μl non-protein hepatocyte lysate, and added with 40 μl NaOH (30%), 40 μl color developer and buffer solution to form a mixed solution. Next, the mixed solution is shaken gently, and placed in room temperature for 10 m. Finally, a spectrometer (ELISA microplate reader, μQuant, Bio-Tek instruments, Inc., Winooski, Vt., USA) is used to detect the absorbance at wavelength 412 nm, and compared with a GSH absorbance curve of known concentration to judge the content of GSH. Similarly, the content of glutathione in the experimental mouseserum can be measured.

HepG2 cells [3] = test: Lipid peroxidation degree (MDA) in alcohol-treated HepG2 cells; format: cell-based, human; conditions: lucidone 1, 5, 10 μg/ml or curcumin 10 μg/ml, 1 h before 100 mM alcohol for 24 h
HO-1 [4] = test: HO-1 protein expression in HepG2 cells (Western blotting); format: cell-based, human; conditions: lucidone 1, 5, 10 μg/ml or curcumin 10 μg/ml, with 100 mM alcohol
HO-1 [5] = test: HO-1 mRNA expression in HepG2 cells (real-time PCR); format: cell-based, human; conditions: lucidone 1, 5, 10 μg/ml or curcumin 10 μg/ml, with 100 mM alcohol, standardized to β-actin
Procedure: Trizol reagent (Invitrogen Life Technologies, Carlsbad, Calif., USA) is used to extract total RNA of cells. One step RT-PCR is used for reverse transcription of mRNA of HO-1 and β-actin into cDNA, then real time-PCR (Applied Biosystems) is applied to real-time expression of HO-1 and β-actin.
Said real-time PCR is used to detect PCR products by combining DNA and SYBR Green. The thermal cycle is: 3 m at 96° C.; 1 m at 96° C. in 40 cycles, 30 s at 50° C. and 90 s at 72° C.

Nrf-2 = Nrf-2 translocation in HepG2 cells (Western blotting of cytoplasm and nuclear extracts); format: cell-based, human; conditions: 1, 5, 10 μg/ml with 100 mM alcohol
Procedure: The cytosolic extracts and nuclear extracts are prepared as per the known test procedures using the currently available test kit (protocol #78833 Nuclear and Cytoplasmic Extraction Reagent kit). And, the common protein assay reagent (Bio-Rad) is used to measure the concentration of protein.
Western blotting is implemented as per the known test procedures in the relevant field, of which said anti-body and enhanced chemiluminescene regents (ECL, Pierce) are used for immunoblotting, and then an imaging device (Viogene Biotek, Sunnyvale, Calif., USA) is used for observing the results.
as §2, with “The experiment groups and control groups are configured in Table 1:” left out
HO-1 is one of ARE-driven antioxidant genes. […] In this experiment, the content of Nrf-2 in cytoplasm and nuclear extracts of tested HepG2 cells, as well as the bonding activity of Nrf-2 and ARE is measured (refer to relevant experimental methods in preferred embodiment 1).
Said content refers to the color strength of the result from Western blotting calculated by typical software in the field.

Nrf-2 and ARE = test: Bonding activity of Nrf-2 and ARE in HepG2 cells (EMSA); format: cell-based, human; conditions: 1, 5, 10 μg/ml with 100 mM alcohol, dose-dependent
[6] = test system: mouse suffered by hepatitis arising from alcohol; test: Content of ALT, AST, nitric oxide and TNF-α in serum, mouse model of hepatitis arising from alcohol; format: in vivo; conditions: lucidone 100 mg/Kg/day i.p. 7 d, mean ± SD
From the text: (§5) The experimental mouse is selected from 4-week male mouse of ICR family (25±5 g) in Charles River (Taipei, Taiwan). Prior to the experiment, the experimental mouse will be bred for at least 1 week in constant temperature lab conditions wherein unlimited feedstock and water are supplied. All animals shall be governed by the Guide for the Care and Use of Laboratory Animals and relevant animal protection acts of Taiwan, and approved by local ethics commissions. 80% alcohol or lucidone is applied to aforementioned experimental mouse (1 mL/Kg) by following methods: alcohol is applied orally, or by intra-peritoneal injection, or alcohol and lucidone are applied orally, or by intra-peritoneal injection.
as §1
According to the principle of Griess reaction, nitrite accumulated from the supernatant liquid cultivated by cells and mouse serum is measured to obtain indirectly the generation of nitric oxide. The supernatant liquid cultivated by cells and tumor necrosis factor-α in the serum are measured using the currently available human TNF-αELISA kit. In brief, aforementioned HepG2 cells of […] are separately cultivated in 96-well plate, and then added with lucidone and alcohol to cultivate them for 24 h. Next, the culture solution is diluted by the work reagent of aforementioned kit by a percentage of 1:2. Then, every 100 μl diluted culture solution is subject to ELISA reaction as per the operating instruction of aforementioned kit, and then a spectrometer is used to detect the absorbance at wavelength 450 nm so as to judge the content of tumor necrosis factor-α; in the mouse experiment, the mouse serum is diluted properly and then the content of tumor necrosis factor-α is tested as per the operating instruction of aforementioned kit.
(§6) The aforementioned mouse are grouped and then applied with lucidone for 7 d at a dose of 100 mg/Kg/day by means of intra-peritoneal injection, and at the 7th day, applied with lucidone and then applied with 80% alcohol orally or by intra-peritoneal injection at a dose of 1 ml/Kg, one time every 12 h with 3 doses; of which, the mouse of the control group is fed with 1% DMSO dissolved in saline solution.
Take out the serum of mouse suffered by hepatitis arising from alcohol as per aforementioned experimental design, and determine the content of ALT, AST, nitric oxide and TNF-α by the experimental methods in preferred embodiment 1.

[7] = test system: mouse suffered by hepatitis arising from alcohol; test: Content of GSH and MDA in serum and tissue, mouse model of hepatitis arising from alcohol; format: in vivo; conditions: lucidone 100 mg/Kg/day i.p. 7 d, mean ± SD; for GSH in tissue / MDA in tissue: liver tissue
From the text: as §5
A currently available lipid peroxidation test kit (Oxford Biomedical Research, Oxford, Mich., USA) is used to measure the degree of lipid peroxidation. In brief, the cells are lysed by 200 μl cell lysis buffer. Then, 140 μl cell lysate is mixed with 455 μl N-methyl-2-phenylindole dissolved in acetonitrile and 105 μl acid (HCL, 37%), and placed in 45° C. for 60 m. malondialdehyde (MDA) is a main product of polyunsaturated fatty acid lysed by peroxidation. In this experiment, N-methyl-2-phenylindole is used to generate stable chromophore through reaction with MDA, and the formation of MDA is measured under maximum absorbance wavelength 535 nm as an index of measuring lipid peroxidation. Similarly, the degree of lipid peroxidation in the serum of experimental mouse can be measured.
A currently available GSH-96-well plate colorimetric GSH assay kit, Oxis International, Foster City, Calif., USA) is used to measure the content of glutathione (GSH). In brief, 40 μl chromogenic reagent dissolved in acid is added into 40 μl non-protein hepatocyte lysate, and added with 40 μl NaOH (30%), 40 μl color developer and buffer solution to form a mixed solution. Next, the mixed solution is shaken gently, and placed in room temperature for 10 m. […] Similarly, the content of glutathione in the experimental mouseserum can be measured.
as §6
Take out the serum and liver tissue of mouse suffered by hepatitis arising from alcohol as per aforementioned experimental design, and measure GSH content and lipid peroxidation degree as per the experimental methods in preferred embodiment 1.

[8] = intra-peritoneal injection alcohol (80%, 1 ml/Kg, 3 doses every 12 h)
[9] = orally taking alcohol (80%, 1 ml/Kg, 3 doses every 12 h)
[10] = intra-peritoneal injection alcohol

SMILES: COC1=CC(=O)C(=C(O)/C=C/c2ccccc2)C1=O [lucidone]
- content of ALT in cell culture solution (HepG2 cells [1]): reduced the phenomenon of growing content
- content of AST in cell culture solution (HepG2 cells [1]): reduced the phenomenon of growing content
- content of TNF-α in cell culture solution (tumor necrosis factor-α): reduced the phenomenon of growing content
- generation of reactive oxygen species caused by alcohol (reactive oxygen species): reduced the generation
- generation of nitric oxide caused by alcohol (nitrite) (nitric oxide): reduced the generation
- decline of GSH concentration in the cells caused by alcohol (HepG2 cells [2]): can be avoided
- lipid peroxidation in the cells caused by alcohol (HepG2 cells [3]): reduce greatly
- expression of HO-1 protein in the cells (HO-1 [4]): substantial increase
- expression of HO-1 mRNA in the cells (HO-1 [5]): substantial increase
- Nrf-2 translocation (Nrf-2 content in nucleus) (Nrf-2): facilitate Nrf-2 translocation
- bonding activity of Nrf-2 and ARE (Nrf-2 and ARE): improve significantly the bonding activity
- ALT in serum [6, 8]: 103.0 ± 65.6 U/L
- AST in serum [6, 8]: 139.6 ± 12.2 U/L
- TNF-α in serum [6, 8]: 3.91 ± 0.28 ng/mL
- nitric oxide in serum [6, 8]: 102.3 ± 0.52 nM/mL
- ALT in serum [6, 9]: 875.4 ± 57.2 U/L
- AST in serum [6, 9]: 508.0 ± 31.7 U/L
- TNF-α in serum [6, 9]: 10.0 ± 0.28 ng/mL
- nitric oxide in serum [6, 9]: 370.6 ± 0.53 nM/mL
- GSH in tissue [7, 10]: 173.9 ± 58.5 nmol/mg of protein
- MDA in tissue [7, 10]: 20.9 ± 0.71 nmol/mg of protein
- GSH in serum [7, 10]: 42.9 ± 1.8 nmol/mg of protein
- MDA in serum [7, 10]: 16.2 ± 0.77 nmol/mg of protein
- GSH in tissue ([7]; orally taking alcohol): 261.2 ± 11.1 nmol/mg of protein
- MDA in tissue ([7]; orally taking alcohol): 69.2 ± 0.67 nmol/mg of protein
- GSH in serum ([7]; orally taking alcohol): 30.5 ± 1.0 nmol/mg of protein
- MDA in serum ([7]; orally taking alcohol): 19.5 ± 0.41 nmol/mg of protein

SMILES: COc1cc(/C=C/C(=O)CC(=O)/C=C/c2ccc(O)c(OC)c2)ccc1O [curcumin, reference compound]
- decline of GSH concentration in the cells caused by alcohol (HepG2 cells [2]): can be avoided
- lipid peroxidation in the cells caused by alcohol (HepG2 cells [3]): reduce greatly
- expression of HO-1 protein in the cells (HO-1 [4]): substantial increase
- expression of HO-1 mRNA in the cells (HO-1 [5]): substantial increase
